Patent publication US20140094465A1, “Compounds as S-Nitrosoglutathione Reductase Inhibitors” (N30 PHARMACEUTICALS, INC., priority 2011, published 2014)

biological target: T1, S-nitrosoglutathione reductase (GSNOR) (Homo sapiens, UniProt P11766); assay: GSNOR assay (inhibition of GSNOR activity, NADH absorbance at 340 nm); format: biochemical; conditions: GSNOR inhibitor activity, Tables 1-6; read-out: IC50 range
T1 construct: made in house; host or cells: E. coli
Outline: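 Recombinant GSNOR purified from E. coli, tag removed. Final conditions: 100 mM NaPO4 pH 7.4, 0.240 mM GSNO, 0.300 mM NADH, 0.5 μg/mL enzyme, 1% DMSO; NADH loss followed as 340 nm absorbance change over 3 min at 25 °C. Compounds 100–0.003 μM, triplicate; IC50 by curve analysis.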

T1 sequence (P11766 whole entry): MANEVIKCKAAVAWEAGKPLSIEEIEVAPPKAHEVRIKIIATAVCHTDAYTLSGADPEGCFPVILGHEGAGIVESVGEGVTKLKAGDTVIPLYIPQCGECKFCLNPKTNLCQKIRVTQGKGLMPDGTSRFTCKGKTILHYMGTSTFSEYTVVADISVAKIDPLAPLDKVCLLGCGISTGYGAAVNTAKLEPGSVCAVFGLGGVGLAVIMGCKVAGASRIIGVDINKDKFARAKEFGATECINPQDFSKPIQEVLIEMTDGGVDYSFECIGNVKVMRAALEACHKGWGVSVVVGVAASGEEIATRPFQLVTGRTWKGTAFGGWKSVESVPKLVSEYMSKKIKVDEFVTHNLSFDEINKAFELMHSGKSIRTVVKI

| IC50 | Structure (SMILES) |
| --- | --- |
| < 0.1 µM | COc1c(-c2ccc(C(=O)O)cc2)ccc2cc(O)ccc12 [III-24, 4-(6-hydroxy-1-methoxynaphthalen-2-yl)benzoic acid] |
| 1 to 10 µM | O=C(O)c1ccc(Oc2c(-c3ccc(F)cc3)oc3cc(O)ccc3c2=O)cc1 [Compound V-8, 4-(2-(4-fluorophenyl)-7-hydroxy-4-oxo-4H-chromen-3-yloxy)benzoic acid] |
| 0.1 to 1 µM | O=C(O)c1ccc(-c2ccc3cc(O)ccc3c2)c(N2CCOCC2)c1 [III-10] |
| < 0.1 µM | Cc1cc2cc(O)ccc2nc1-c1ccc(C(=O)O)cc1 [Compound I-1] |
| < 0.1 µM | Cc1cc(C(=O)O)ccc1-c1ccc2cc(O)ccc2c1 [III-37, 4-(6-hydroxynaphthalen-2-yl)-3-methylbenzoic acid] |
| < 0.1 µM | O=C(O)c1ccc(-c2ccc3cc(O)cc(F)c3n2)cc1 [Compound I-54, 4-(8-fluoro-6-hydroxyquinolin-2-yl)benzoic acid] |
| 1 to 10 µM | O=C(O)c1ccc(CCC(=O)c2ccc(O)cc2)cc1 [VI-30, 4-(3-(4-hydroxyphenyl)-3-oxopropyl)benzoic acid] |
| 1 to 10 µM | O=C(O)c1ccc(Oc2c(-c3ccc(O)cc3)oc3cc(O)ccc3c2=O)cc1 [Compound V-10, 4-(7-hydroxy-2-(4-hydroxyphenyl)-4-oxo-4H-chromen-3-yloxy)benzoic acid] |
| < 0.1 µM | O=C(O)c1ccc(-c2ncc3cc(O)ccc3n2)cc1 [II-1] |
| < 0.1 µM | CC(F)(F)c1oc2cc(O)ccc2c(=O)c1-c1ccc(C(=O)O)cc1 [IV-16] |
| 1 to 10 µM | O=C(O)c1ccc(NC(=O)c2ccc(O)cc2O)cc1 [VI-16, 4-(2,4-dihydroxybenzamido)benzoic acid] |

The next lines start with the compound.

| Structure (SMILES) | IC50 |
| --- | --- |
| O=C(O)c1ccc(CS(=O)(=O)c2ccc(O)c(F)c2)c(F)c1 [VI-20, 3-fluoro-4-(((3-fluoro-4-hydroxyphenyl)sulfonyl)methyl)benzoic acid] | < 0.1 µM |
| Cc1cc(C(=O)O)ccc1-c1cc(F)c2c(F)c(O)ccc2c1 [III-41, 4-(4,5-difluoro-6-hydroxynaphthalen-2-yl)-3-methylbenzoic acid] | < 0.1 µM |
| COc1cc(Oc2c(C(F)(F)F)oc3cc(O)ccc3c2=O)ccc1C(=O)O [Compound V-5] | 1 to 10 µM |
| O=[N+]([O-])c1cc(-c2ccc3cc(O)ccc3c2)ccc1O [III-36, 6-(4-hydroxy-3-nitrophenyl)naphthalen-2-ol] | 0.1 to 1 µM |
| O=C(O)C1CCC(c2ccc3cc(O)ccc3n2)CC1 (centres unmarked) [Compound I-6] | 0.1 to 1 µM |
| O=c1[nH]c(-c2ccc(-c3c(C(F)(F)F)oc4cc(O)ccc4c3=O)c(F)c2)no1 [IV-41] | < 0.1 µM |
| O=C(O)c1ccc(Oc2c(C(F)(F)F)oc3cc(O)ccc3c2=O)cc1O [Compound V-13, 2-hydroxy-4-(7-hydroxy-4-oxo-2-(trifluoromethyl)-4H-chromen-3-yloxy)benzoic acid] | 0.1 to 1 µM |
| O=c1c(-c2ccc(-c3nnn[nH]3)c(Cl)c2)c(C(F)(F)F)oc2cc(O)ccc12 [IV-42] | < 0.1 µM |
| O=c1c(-c2ccc(-c3nnn[nH]3)cc2)coc2cc(O)ccc12 [IV-44] | < 0.1 µM |
| O=C(O)c1ccc(CC(=O)c2ccc(O)cc2F)c(F)c1 [VI-2, 3-fluoro-4-(2-(2-fluoro-4-hydroxyphenyl)-2-oxoethyl)benzoic acid] | < 0.1 µM |
| COc1cc(C(=O)O)ccc1-c1cc(F)c2c(F)c(O)ccc2c1 [III-43, 4-(4,5-difluoro-6-hydroxynaphthalen-2-yl)-3-methoxybenzoic acid] | < 0.1 µM |
| COc1cc(-c2ccc3cc(O)ccc3n2)ccc1C(=O)O [Compound I-59, 4-(6-hydroxyquinolin-2-yl)-2-methoxybenzoic acid] | 0.1 to 1 µM |
| Oc1ccc2nc(-c3ccc(-c4nn[nH]n4)cc3)c(C(F)(F)F)nc2c1 [II-10] | < 0.1 µM |
| O=c1nc(-c2ccc(-c3ccc4cc(O)ccc4n3)cc2)s[nH]1 [Compound I-39] | 0.1 to 1 µM |
| O=c1nc(-c2ccc(-c3ccc4cc(O)ccc4n3)cc2F)[nH]o1 [Compound I-20] | < 0.1 µM |
| O=C(O)c1ccc(-c2ccc3cc(O)ccc3n2)cc1O [Compound I-60, 2-hydroxy-4-(6-hydroxyquinolin-2-yl)benzoic acid] | < 0.1 µM |
| O=C(O)c1ccc(CCC(=O)c2ccc(O)c(F)c2F)cc1 [VI-29, 4-(3-(2,3-difluoro-4-hydroxyphenyl)-3-oxopropyl)benzoic acid] | 1 to 10 µM |
| O=C(O)c1ccc(CC(=O)c2ccc(O)cc2O)c(F)c1 [VI-18, 4-(2-(2,4-dihydroxyphenyl)-2-oxoethyl)-3-fluorobenzoic acid] | 0.1 to 1 µM |
| O=c1c(Oc2ccc(O)c([N+](=O)[O-])c2)c(C(F)(F)F)oc2cc(O)ccc12 [Compound V-17, 7-hydroxy-3-(4-hydroxy-3-nitrophenoxy)-2-(trifluoromethyl)-4H-chromen-4-one] | 0.1 to 1 µM |
| COc1cc(C(=O)O)ccc1-c1cc(F)c2cc(O)ccc2n1 [Compound I-48, 4-(4-fluoro-6-hydroxyquinolin-2-yl)-3-methoxybenzoic acid] | < 0.1 µM |
| O=C(O)c1ccc(Oc2c(C(F)(F)F)oc3cc(O)ccc3c2=S)cc1 [Compound V-4, 4-((7-hydroxy-4-thioxo-2-(trifluoromethyl)-4H-chromen-3-yl)oxy)benzoic acid] | 0.1 to 1 µM |
| O=C(O)c1ccc(-c2ccc3c(F)c(O)ccc3c2)c(Cl)c1 [III-30] | < 0.1 µM |
| Cc1cc(C(=O)O)ccc1-c1ncc2cc(O)ccc2n1 [II-4] | < 0.1 µM |
| O=c1[nH]c(-c2ccc(-c3c(C(F)(F)F)oc4cc(O)ccc4c3=O)cc2)ns1 [IV-33] | < 0.1 µM |
| O=C(NO)c1ccc(-c2c(C(F)(F)F)oc3cc(O)ccc3c2=O)cc1 [IV-37] | 0.1 to 1 µM |
| O=C(O)c1cnc(-c2ccc3cc(O)ccc3c2)cn1 [III-8] | 0.1 to 1 µM |
| O=C(O)C1CCN(c2nc3ccc(O)cc3cc2C(F)(F)F)CC1 [Compound I-41] | < 0.1 µM |

same assay, conditions: GSNOR; read-out: IC50

| IC50 | Structure (SMILES) |
| --- | --- |
| < 0.1 µM | O=C(O)c1ccc(CC(=O)c2ccc(O)cc2F)c(F)c1 [VI-2, 3-fluoro-4-(2-(2-fluoro-4-hydroxyphenyl)-2-oxoethyl)benzoic acid] |

same assay, conditions: Table 7; GSNOR inhibition, IC50 range class a/b/c; read-out: IC50

| IC50 | Structure (SMILES) |
| --- | --- |
| < 0.1 µM | CC(C)CCCn1c(-c2ccc(O)cc2)ccc1-c1ccc(C(=O)O)cc1 [VII-30, 4-(5-(4-hydroxyphenyl)-1-(4-methylpentyl)-1H-pyrrol-2-yl)benzoic acid] |
| 0.1 to 1 µM | O=C(O)c1ccc(-c2ccc(-c3ccc(O)cc3)s2)cc1 [VII-4, 4-(5-(4-hydroxyphenyl)thiophen-2-yl)benzoic acid] |
| < 0.1 µM | O=C(O)c1ccc(-c2csc(-c3ccc(O)cc3)n2)s1 [VII-9, 5-(2-(4-hydroxyphenyl)thiazol-4-yl)thiophene-2-carboxylic acid] |
| < 0.1 µM | CC(C)n1c(-c2ccc(O)cc2)ccc1-c1ccc(C(=O)O)cc1 [VII-32, 4-(5-(4-hydroxyphenyl)-1-isopropyl-1H-pyrrol-2-yl)benzoic acid] |
| 0.1 to 1 µM | O=C(O)c1ccc(-c2cc(-c3ccc(O)cc3)cs2)s1 [VII-19, 4′-(4-hydroxyphenyl)-[2,2′-bithiophene]-5-carboxylic acid] |
| < 0.1 µM | CCOCCCn1c(-c2ccc(O)cc2)ccc1-c1ccc(C(=O)O)cc1 [VII-36, 4-(1-(3-ethoxypropyl)-5-(4-hydroxyphenyl)-1H-pyrrol-2-yl)benzoic acid] |

same assay, conditions: Table 8; GSNOR inhibition, IC50 range class a/b/c; read-out: IC50

| IC50 | Structure (SMILES) |
| --- | --- |
| 1 to 10 µM | O=C(O)c1ccc(N2CCc3cc(O)ccc3C2)cc1 [VIII-6, 4-(6-hydroxy-3,4-dihydroisoquinolin-2(1H)-yl)benzoic acid] |
| 0.1 to 1 µM | Cc1cc2cc(O)ccc2c(=O)n1-c1ccc(C(=O)O)cc1 [VIII-13, 4-(6-hydroxy-3-methyl-1-oxoisoquinolin-2(1H)-yl)benzoic acid] |
